Source: patent US4587340A, “Biopterin analogs” (Burroughs Wellcome Co., priority 1984, dated 1986)

Tests used:
[1] = target: T1, Phenylalanine hydroxylase (Rattus norvegicus, UniProt P04176); test: Phenylalanine hydroxylase cofactor assay; assay type: biochemical; conditions: for Phenylalanine hydroxylase Vmax: tetrahydrobiopterin = 100
T1 construct: Phenylalanine hydroxylase was prepared from rat liver using hydrophobic chromatography; from tissue; host or cells: rat liver
T1 sequence (P04176 1-453): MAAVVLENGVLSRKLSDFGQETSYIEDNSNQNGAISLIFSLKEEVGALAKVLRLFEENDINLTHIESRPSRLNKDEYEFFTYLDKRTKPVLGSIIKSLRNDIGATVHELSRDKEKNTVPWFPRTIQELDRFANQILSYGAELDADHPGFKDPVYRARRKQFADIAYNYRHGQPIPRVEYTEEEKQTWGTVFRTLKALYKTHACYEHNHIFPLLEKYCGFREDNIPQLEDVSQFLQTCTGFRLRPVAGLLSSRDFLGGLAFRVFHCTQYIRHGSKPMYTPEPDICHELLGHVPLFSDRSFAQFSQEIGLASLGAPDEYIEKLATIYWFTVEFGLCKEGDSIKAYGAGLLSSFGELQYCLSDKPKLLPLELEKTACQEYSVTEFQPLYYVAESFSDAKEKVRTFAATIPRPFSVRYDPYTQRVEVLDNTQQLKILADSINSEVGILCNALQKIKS

Tryptophan hydroxylase = target: T2, Tryptophan hydroxylase (Rattus norvegicus, UniProt Q8CGU9); test: Tryptophan hydroxylase cofactor assay; assay type: biochemical; conditions: for Activity for tryptophan hydroxylase: in words; for Tryptophan hydroxylase Vmax: tetrahydrobiopterin = 100
T2 construct: The preparation of tryptophan hydroxylase was a crude 30,000xg supernatant; from tissue
T2 sequence (Q8CGU9 1-485): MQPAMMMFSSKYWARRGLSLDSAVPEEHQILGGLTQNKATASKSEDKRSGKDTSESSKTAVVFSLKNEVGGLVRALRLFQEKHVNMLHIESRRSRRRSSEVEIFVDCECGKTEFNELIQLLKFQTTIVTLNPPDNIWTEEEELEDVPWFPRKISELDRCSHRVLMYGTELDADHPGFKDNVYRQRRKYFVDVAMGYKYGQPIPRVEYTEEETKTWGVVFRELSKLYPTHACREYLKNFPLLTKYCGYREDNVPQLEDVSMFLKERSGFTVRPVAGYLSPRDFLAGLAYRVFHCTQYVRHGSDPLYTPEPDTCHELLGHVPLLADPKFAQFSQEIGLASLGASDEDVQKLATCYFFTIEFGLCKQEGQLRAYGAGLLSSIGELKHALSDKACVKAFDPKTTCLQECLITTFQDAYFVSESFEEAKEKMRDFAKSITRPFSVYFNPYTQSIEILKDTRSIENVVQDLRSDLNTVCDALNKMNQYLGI
Description: Tryptophan hydroxylase was assayed according to a modification of the method of Renson J., et al (Biochem. Biophys. Acta 25: 504 (1966)).

Tyrosine hydroxylase = Tyrosine hydroxylase (Homo sapiens, UniProt P07101); test: Tyrosine hydroxylase cofactor assay; assay type: biochemical
Sequence of Tyrosine hydroxylase (P07101 whole entry): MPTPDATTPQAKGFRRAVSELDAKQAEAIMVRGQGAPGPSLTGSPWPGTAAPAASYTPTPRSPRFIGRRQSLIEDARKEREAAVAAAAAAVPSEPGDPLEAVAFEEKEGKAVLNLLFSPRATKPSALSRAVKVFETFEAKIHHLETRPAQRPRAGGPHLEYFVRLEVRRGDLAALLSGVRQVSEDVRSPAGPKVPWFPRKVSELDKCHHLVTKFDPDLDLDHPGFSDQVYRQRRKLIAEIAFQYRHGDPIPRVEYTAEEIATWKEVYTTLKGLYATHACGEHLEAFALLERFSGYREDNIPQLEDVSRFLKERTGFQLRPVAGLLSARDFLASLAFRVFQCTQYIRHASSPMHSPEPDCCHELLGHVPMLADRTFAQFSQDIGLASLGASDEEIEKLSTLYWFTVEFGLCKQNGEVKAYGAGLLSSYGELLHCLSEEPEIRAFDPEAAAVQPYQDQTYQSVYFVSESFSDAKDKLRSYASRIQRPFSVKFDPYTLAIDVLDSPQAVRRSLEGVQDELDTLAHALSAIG
Description: Tyrosine hydroxylase was partially purified through a 25-45% ammonium sulfate fraction. […] The enzyme was assayed by a modification of the method of Nagatsu, T., Levitt, M., and Udenfriend, S. (Anal. Biochem. 9, 122, (1964)) where the Dowex chromatography step was replaced by a charcoal extraction.

[2] = target: T3, Dihydropteridine reductase (Homo sapiens, UniProt P09417); test: Dihydropteridine reductase assay; assay type: biochemical; conditions: quinonoid dihydro form; biopterin form = 100
T3 sequence (P09417 1-244): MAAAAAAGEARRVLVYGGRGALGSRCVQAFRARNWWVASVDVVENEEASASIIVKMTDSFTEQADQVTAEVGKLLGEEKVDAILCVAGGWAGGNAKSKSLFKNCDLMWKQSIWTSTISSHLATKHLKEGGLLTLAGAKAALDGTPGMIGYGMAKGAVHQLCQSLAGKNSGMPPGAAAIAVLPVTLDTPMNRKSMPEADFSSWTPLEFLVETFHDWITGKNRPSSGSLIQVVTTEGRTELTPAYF
Description: Dihydropteridine reductase was assayed by the method of Craine, et al., (J. Biol. Chem., 247, 6082 (1972)).

bovine liver DHFR = target: T4, bovine liver DHFR (Bos taurus, UniProt P00376); test: Dihydrofolate reductase assay; assay type: biochemical; conditions: for Dihydrofolate reductase V: 7,8-dihydro form of the pterin, 7,8-dihydrobiopterin = 100
T4 construct: from tissue; host or cells: bovine liver
T4 sequence (P00376 1-187): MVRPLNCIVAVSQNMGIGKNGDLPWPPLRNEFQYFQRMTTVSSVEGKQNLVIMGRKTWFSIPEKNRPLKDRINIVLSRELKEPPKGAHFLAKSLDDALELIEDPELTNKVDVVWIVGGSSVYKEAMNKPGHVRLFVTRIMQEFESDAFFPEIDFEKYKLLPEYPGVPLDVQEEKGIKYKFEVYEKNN
Description: These assays were carried out on the 7,8-dihydropterin analogs of the compounds of formula I which were tetrahydropterins. The 7,8-dihydropterins were obtained commercially (in the case of dihydrobiopterin) or synthesized from the corresponding compound of formula I. Synthesis of 7,8-dihydropterins involved the combination of 0.27 μmole of a compound of formula I, 20 μg of horseradish peroxidase, 0.6 μmole of hydrogen peroxide in 0.1 ml of 0.5M potassium phosphate buffer, pH 7.5. After 3 min at room temperature, 10 μg of bovine liver catalase was added. The production of the 7,8-dihydropterin was verified by U.V. spectroscopy.
The assay was carried out with bovine liver DHFR using a modification of the method of Bailey and Ayling (J. Biol. Chem., 253, 1598 (1978)) where the desired dihydropterin replaced dihydrobiopterin, and the HPLC system used consisted of an anaerobic 0.1M acetic acid (with or without 10% acetonitrite) solvent on a 25 cm×4.6 mm Dupont TMS-Zorbax column. In our hands, dihydrobiopterin is reduced at a rate 2.5% that of the natural substrate dihydrofolate.

[3] = background statement; cited from earlier work
[4] = background statement; cited from earlier work; remark: listed apart in the source
[5] = tested on: striatal dopamine synthesis, noradrenaline synthesis in peripheral nerves; conditions: administration of BH4; cited from earlier work
Parkinson's disease = conditions: BH4 administration; cited from earlier work
depression = conditions: several patients; cited from earlier work
atypical PKU = conditions: large quantities; cited from earlier work

Structure (SMILES): CCCOCC1CNc2nc(N)[nH]c(=O)c2N1 (stereo not drawn) [R=C3 H7]
- Activity for phenylalanine hydroxylase ([1]; in words): successively less active
- Activity for tryptophan hydroxylase (Tryptophan hydroxylase): successively less active

Structure (SMILES): CCCCOCC1CNc2nc(N)[nH]c(=O)c2N1 (racemic) [R=C4 H9, (+-)-2-Amino-5,6,7,8-tetrahydro-6-n-butoxymethyl-4(3H)-pteridinone]
- Specificity for tyrosine hydroxylase (Tyrosine hydroxylase; versus tryptophan and phenylalanine hydroxylases): greatest specificity
- Activity for phenylalanine hydroxylase ([1]; in words): successively less active
- Activity for tryptophan hydroxylase (Tryptophan hydroxylase): successively less active

Structure (SMILES): C[C@H](O)[C@H](O)[C@H]1CNc2nc(N)[nH]c(=O)c2N1 [Tetrahydrobiopterin]
- Specific activity of tyrosine hydroxylase preparation with the cofactor (Tyrosine hydroxylase; 25-45% ammonium sulfate fraction): 4.0 nmole/mg protein (min)
- Tyrosine hydroxylase Vmax (Tyrosine hydroxylase; tetrahydrobiopterin = 100): 100%
- Specific activity of phenylalanine hydroxylase with the co-factor ([1]; 37°, rat liver enzyme): 1.0 μmol/mg protein per minute
- Substrate inhibition of phenylalanine hydroxylase by large amounts of phenylalanine ([1]; in words): large amounts of phenylalanine inhibit phenylalanine hydroxylase
- Phenylalanine hydroxylase Vmax [1]: 100%
- Specific activity of tryptophan hydroxylase with the cofactor (Tryptophan hydroxylase; 37°, crude 30,000xg supernatant): approximately 100 pmol product per milligram protein per minute
- Tryptophan hydroxylase Vmax (Tryptophan hydroxylase): 100%
- Dihydropteridine reductase Vmax [2]: 100%
- Dihydrofolate reductase V (bovine liver DHFR): 100%
- Brain penetration [3]: penetrates brain poorly
- Stability [4]: unstable
- Noradrenaline synthesis in peripheral nerves [5]: nearly double
- Striatal dopamine synthesis [5]: nearly double
- Symptoms of Parkinson's disease (Parkinson's disease): improve the symptoms of Parkinson's disease
- Symptoms of depression (depression): improve the symptoms of depression
- Treatment of atypical PKU (atypical PKU): successfully treated

Structure (SMILES): CC(O)C(O)C1=Nc2c(nc(N)[nH]c2=O)NC1 (stereo not drawn) [7,8-Dihydrobiopterin]
- Rate of reduction by DHFR relative to dihydrofolate, the natural substrate (bovine liver DHFR; bovine liver DHFR): 2.5%

Structure (SMILES): COCC1CNc2nc(N)[nH]c(=O)c2N1 (racemic) [6-Methoxymethyl-tetrahydropterin, (+-)-2-Amino-5,6,7,8-tetrahydro-6-methoxymethyl-4(3H)-pteridinone]
- Phenylalanine hydroxylase Vmax [1]: 79%
- Tryptophan hydroxylase Vmax (Tryptophan hydroxylase): 54%
- Dihydrofolate reductase V (bovine liver DHFR): 800%

Structure (SMILES): CCCCCCCCOCC1CNc2nc(N)[nH]c(=O)c2N1 (stereo not drawn) [C8 H17]
- Activity for phenylalanine hydroxylase ([1]; in words): successively less active
- Activity for tryptophan hydroxylase (Tryptophan hydroxylase): successively less active

Structure (SMILES): CCOCC1CNc2nc(N)[nH]c(=O)c2N1 (racemic) [R=C2 H5, (+-)-2-Amino-5,6,7,8-tetrahydro-6-ethoxymethyl-4(3H)-pteridinone]
- Activity for tyrosine hydroxylase (Tyrosine hydroxylase; in words): active
- Activity for phenylalanine hydroxylase ([1]; in words): active
- Activity for tryptophan hydroxylase (Tryptophan hydroxylase): active
